In assay [1] the target is PI3Kγ (p110γ) Recombinant Human Protein (Homo sapiens (Human), UniProt P48736). The assay is described as follows: PI3K-γ scintillation proximity assay. It counts as biochemical. To be noted: 2 μM ATP, 20 μM PIP2.
In assay [2] the target is PI3Kδ (p110δ/p85α) Recombinant Human Protein (Homo sapiens (Human), UniProt O00329). As to the kind of experiment: PI3Kδ scintillation proximity assay. Type of assay: biochemical. To be noted: 2 μM ATP, 20 μM PIP2.
Assay [3] concerns Phosphorylated Ribosomal Protein S6 (RPS6) in THP-1 cells. The assay is described as follows: THP-1 RPS6 ELISA assay. It counts as cell-based, human. As to conditions: 10 nM MCP-1, read-out: PI3Kγ_THP1_RPS6_ELISA IC50. For orientation: ELISA stands for enzyme-linked immunosorbent assay.
[4] abbreviates: Homo sapiens, THP-1, THP-1 cells.

The text below walks through data of patent US10065963B2 (Incyte Corporation, priority 2015, dated 2018).

Structures can show the parent of a compound that is named as a salt. Where two headings read alike, the source gives them in different places.

PI3Kδ (p110δ/p85α) Recombinant Human Protein, sequence (O00329 whole entry): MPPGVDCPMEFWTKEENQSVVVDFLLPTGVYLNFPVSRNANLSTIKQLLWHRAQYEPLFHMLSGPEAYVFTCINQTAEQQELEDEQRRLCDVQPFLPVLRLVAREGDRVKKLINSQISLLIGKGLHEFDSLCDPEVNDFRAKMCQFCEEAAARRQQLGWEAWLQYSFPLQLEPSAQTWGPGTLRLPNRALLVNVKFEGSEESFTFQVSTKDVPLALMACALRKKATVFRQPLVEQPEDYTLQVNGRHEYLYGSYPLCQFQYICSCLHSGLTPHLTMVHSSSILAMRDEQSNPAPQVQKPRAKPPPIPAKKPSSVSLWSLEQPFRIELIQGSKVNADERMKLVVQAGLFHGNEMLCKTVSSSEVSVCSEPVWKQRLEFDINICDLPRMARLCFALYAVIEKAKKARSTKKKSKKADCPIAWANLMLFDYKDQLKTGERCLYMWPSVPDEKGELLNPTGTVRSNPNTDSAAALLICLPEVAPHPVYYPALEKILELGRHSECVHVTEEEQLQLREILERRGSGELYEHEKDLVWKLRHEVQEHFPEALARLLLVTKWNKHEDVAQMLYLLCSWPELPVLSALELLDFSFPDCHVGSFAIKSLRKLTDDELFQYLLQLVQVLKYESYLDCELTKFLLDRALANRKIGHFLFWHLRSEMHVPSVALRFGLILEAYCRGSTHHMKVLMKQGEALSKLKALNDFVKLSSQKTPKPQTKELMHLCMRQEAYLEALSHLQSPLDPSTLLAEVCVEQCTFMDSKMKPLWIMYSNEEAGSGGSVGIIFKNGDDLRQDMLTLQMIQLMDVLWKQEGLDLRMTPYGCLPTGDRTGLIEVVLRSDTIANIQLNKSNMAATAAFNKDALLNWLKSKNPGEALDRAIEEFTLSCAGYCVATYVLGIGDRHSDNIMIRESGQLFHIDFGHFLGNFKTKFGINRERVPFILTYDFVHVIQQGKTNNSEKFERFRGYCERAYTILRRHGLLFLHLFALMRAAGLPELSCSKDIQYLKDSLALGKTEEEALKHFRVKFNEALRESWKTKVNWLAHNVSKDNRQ
PI3Kδ (p110δ/p85α) Recombinant Human Protein, sequence (P27986 whole entry partner): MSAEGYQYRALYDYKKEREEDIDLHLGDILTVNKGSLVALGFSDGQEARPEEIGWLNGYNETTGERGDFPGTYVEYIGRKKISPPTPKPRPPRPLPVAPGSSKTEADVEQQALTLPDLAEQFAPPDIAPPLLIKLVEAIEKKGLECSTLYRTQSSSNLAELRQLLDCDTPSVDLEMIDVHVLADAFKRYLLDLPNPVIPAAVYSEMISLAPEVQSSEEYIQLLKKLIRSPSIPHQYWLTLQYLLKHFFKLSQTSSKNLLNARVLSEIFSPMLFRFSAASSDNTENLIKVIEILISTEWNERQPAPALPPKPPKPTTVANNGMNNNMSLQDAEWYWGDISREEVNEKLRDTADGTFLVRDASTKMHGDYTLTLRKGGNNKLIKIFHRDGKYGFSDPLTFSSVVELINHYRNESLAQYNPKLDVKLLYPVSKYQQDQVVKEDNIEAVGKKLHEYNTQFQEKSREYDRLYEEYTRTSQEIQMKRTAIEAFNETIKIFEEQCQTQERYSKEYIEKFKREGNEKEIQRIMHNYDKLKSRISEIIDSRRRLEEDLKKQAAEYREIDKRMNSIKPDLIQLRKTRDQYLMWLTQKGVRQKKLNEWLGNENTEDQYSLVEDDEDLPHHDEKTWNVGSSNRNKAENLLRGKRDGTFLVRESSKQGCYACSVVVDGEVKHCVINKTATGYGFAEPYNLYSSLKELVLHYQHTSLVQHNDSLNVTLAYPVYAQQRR
PI3Kγ (p110γ) Recombinant Human Protein, sequence (P48736 whole entry): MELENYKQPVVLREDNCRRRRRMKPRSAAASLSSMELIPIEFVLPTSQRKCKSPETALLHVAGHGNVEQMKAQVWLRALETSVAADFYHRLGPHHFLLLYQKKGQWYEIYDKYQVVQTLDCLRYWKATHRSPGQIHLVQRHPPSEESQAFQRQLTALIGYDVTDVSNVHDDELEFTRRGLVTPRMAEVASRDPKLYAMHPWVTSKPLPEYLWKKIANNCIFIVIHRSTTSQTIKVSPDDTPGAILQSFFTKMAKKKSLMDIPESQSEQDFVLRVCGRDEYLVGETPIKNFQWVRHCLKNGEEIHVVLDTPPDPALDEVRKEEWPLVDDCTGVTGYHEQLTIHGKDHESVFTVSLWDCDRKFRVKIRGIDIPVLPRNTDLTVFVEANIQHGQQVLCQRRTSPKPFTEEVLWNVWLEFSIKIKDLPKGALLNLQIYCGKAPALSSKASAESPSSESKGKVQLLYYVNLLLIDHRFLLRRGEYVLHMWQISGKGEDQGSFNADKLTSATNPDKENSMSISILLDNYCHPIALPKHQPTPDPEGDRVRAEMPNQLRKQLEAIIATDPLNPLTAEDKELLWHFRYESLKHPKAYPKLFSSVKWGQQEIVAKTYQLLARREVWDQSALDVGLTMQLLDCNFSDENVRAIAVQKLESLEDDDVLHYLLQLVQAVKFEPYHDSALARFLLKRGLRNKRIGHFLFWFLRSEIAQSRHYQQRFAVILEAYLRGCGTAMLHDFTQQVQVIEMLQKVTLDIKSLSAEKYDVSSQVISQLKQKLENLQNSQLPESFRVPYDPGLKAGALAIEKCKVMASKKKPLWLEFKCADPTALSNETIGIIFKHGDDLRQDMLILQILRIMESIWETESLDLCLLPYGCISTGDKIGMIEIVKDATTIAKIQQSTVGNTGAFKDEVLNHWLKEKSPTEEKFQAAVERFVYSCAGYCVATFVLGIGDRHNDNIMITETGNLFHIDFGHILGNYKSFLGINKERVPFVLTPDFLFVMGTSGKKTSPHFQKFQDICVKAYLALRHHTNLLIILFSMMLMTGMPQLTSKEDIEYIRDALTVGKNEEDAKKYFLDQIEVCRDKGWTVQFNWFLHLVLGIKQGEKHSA

As for `CNC(=O)C1CCN(c2c(C(C)NC(=O)c3c(N)nn4cccnc34)cc(Cl)c3cn[nH]c23)C1` (single isomer, unassigned) [Example 103B, 2-Amino-N-[1-(4-chloro-7-{3-[(methylamino)carbonyl]pyrrolidin-1-yl}-2H-indazol-6-yl)ethyl]pyrazolo[1,5-a]pyrimidine-3-carboxamide trifluoroacetate], the IC50 in assay [1] is < 100 nM; in assay [2], < 500 nM; in assay [3] (THP-1 cells, trifluoroacetate) it was < 500 nM.
Consider `C[C@H](NC(=O)c1c(N)nn2cccnc12)c1cc(Cl)c2cncn2c1N1CCS(=O)(=O)[C@H](C)C1` [Example 31A, 2-Amino-N-((1S)-1-(8-chloro-5-(2-methyl-1,1-dioxidothiomorpholino)imidazo[1,5-a]pyridin-6-yl)ethyl)pyrazolo[1,5-a]pyrimidine-3-carboxamide trifluoroacetate salt], for which the values for the 50% inhibitory concentration (IC50) in assay [1], in assay [2] and in assay [3] (setting [4]) were < 100 nM, < 100 nM and < 500 nM, respectively.
Regarding `CC(NC(=O)c1c(N)nn2cccnc12)c1cc(Cl)c2cncn2c1N1CCS(=O)(=O)CC1` (stereo not drawn) [Example 36, 2-Amino-N-(1-[8-chloro-5-(1,1-dioxidothiomorpholin-4-yl)imidazo[1,5-a]pyridin-6-yl]ethyl)pyrazolo[1,5-a]pyrimidine-3-carboxamide trifluoroacetate salt], the IC50 was < 100 nM in assay [1], < 100 nM in assay [2] and < 500 nM in assay [3] (setting [4]).
With `CC(NC(=O)c1c(N)nn2cccnc12)c1cc(Cl)c2cncn2c1N1CC[S+]([O-])CC1` (stereo not drawn) [Example 37, 2-Amino-N-(1-[8-chloro-5-(1-oxidothiomorpholin-4-yl)imidazo[1,5-a]pyridin-6-yl]ethyl)pyrazolo[1,5-a]pyrimidine-3-carboxamide trifluoroacetate salt], the IC50 was < 100 nM in assay [1], < 500 nM in assay [2] and < 500 nM in assay [3] (setting [4]).
As to `CC(NC(=O)c1c(N)nn2cccnc12)c1cc(Cl)c2cncn2c1N1CCS(=O)(=O)CC1C` (stereo not drawn) [Example 38B, 2-Amino-N-(1-[8-chloro-5-(3-methyl-1,1-dioxidothiomorpholin-4-yl)imidazo[1,5-a]pyridin-6-yl]ethyl)pyrazolo[1,5-a]pyrimidine-3-carboxamide trifluoroacetate salt], the concentration for half-maximal inhibition (IC50) in assay [1] was < 100 nM; in assay [2] it was < 100 nM; in assay [3] (setting [4]), < 500 nM.
For the compound `CC(NC(=O)c1c(N)nn2cccnc12)c1cc(Cl)c2cncn2c1N1CCS(=N)(=O)CC1` (stereo not drawn) [Example 39, 2-Amino-N-(1-[8-chloro-5-(1-imino-1-oxidothiomorpholin-4-yl)imidazo[1,5-a]pyridin-6-yl]ethyl)pyrazolo[1,5-a]pyrimidine-3-carboxamide], the IC50 was < 100 nM in assay [1], < 100 nM in assay [2] and < 500 nM in assay [3] (setting [4]).
With `CC(NC(=O)c1c(N)nn2cccnc12)c1cc(Cl)c2cncn2c1N1CCS(=O)(=O)C(C)(C)C1` (stereo not drawn) [Example 40, 2-Amino-N-(1-[8-chloro-5-(2,2-dimethyl-1,1-dioxidothiomorpholin-4-yl)imidazo[1,5-a]pyridin-6-yl]ethyl)pyrazolo[1,5-a]pyrimidine-3-carboxamide trifluoroacetate salt], the concentration for half-maximal inhibition (IC50) is < 100 nM in assay [1], < 100 nM in assay [2] and < 500 nM in assay [3] (setting [4]).
Turning to `CCOc1c(C(C)NC(=O)c2c(N)nn3ccc(-c4cncc(OC)c4)nc23)cc(Cl)c2cn[nH]c12` (stereo not drawn) [Example 41, 2-Amino-N-(1-(4-chloro-7-ethoxy-1H-indazol-6-yl)ethyl)-5-(5-methoxypyridin-3-yl)pyrazolo[1,5-a]pyrimidine-3-carboxamide], the 50% inhibitory concentration (IC50) is < 100 nM in assay [1], < 100 nM in assay [2] and < 500 nM in assay [3] (setting [4]).
Turning to `CCOc1c(C(C)NC(=O)c2c(N)nn3ccc(-c4cncc(CO)c4)nc23)cc(Cl)c2cn[nH]c12` (stereo not drawn) [Example 42, 2-Amino-N-(1-(4-chloro-7-ethoxy-1H-indazol-6-yl)ethyl)-5-(5-(hydroxymethyl)pyridin-3-yl)pyrazolo[1,5-a]pyrimidine-3-carboxamide], the IC50 in assay [1] was < 100 nM; in assay [2], < 100 nM; in assay [3] (setting [4]) it was < 500 nM.
Regarding `CCOc1c(C(C)NC(=O)c2c(N)nn3ccc(-c4cncc(OC)c4)nc23)cc(Cl)c2c(Cl)n[nH]c12` (stereo not drawn) [Example 43, 2-Amino-N-(1-(3,4-dichloro-7-ethoxy-1H-indazol-6-yl)ethyl)-5-(5-methoxypyridin-3-yl)pyrazolo[1,5-a]pyrimidine-3-carboxamide trifluoroacetate salt], the IC50 is < 100 nM in assay [1], < 100 nM in assay [2] and < 500 nM in assay [3] (setting [4]).
In the case of `CCOc1c(C(C)NC(=O)c2c(N)nn3ccc(N4CCCCC4)nc23)cc(Cl)c2cn[nH]c12` (stereo not drawn) [Example 44, 2-Amino-N-(1-(4-chloro-7-ethoxy-1H-indazol-6-yl)ethyl)-5-(piperidin-1-yl)pyrazolo[1,5-a]pyrimidine-3-carboxamide trifluoroacetate salt], the IC50 was < 500 nM in assay [1], < 2000 nM in assay [2] and > 1000 nM in assay [3] (setting [4]).
The matching figures for `CCOc1c(C(C)NC(=O)c2c(N)nc3ccc(Cl)nn23)cc(Cl)c2cn[nH]c12` (stereo not drawn) [Example 45, 2-Amino-6-chloro-N-(1-(4-chloro-7-ethoxy-1H-indazol-6-yl)ethyl)imidazo[1,2-b]pyridazine-3-carboxamide]: < 100 nM, < 100 nM and < 500 nM.
The matching figures for `CCOc1c(C(C)NC(=O)c2c(N)nc3ccc(-c4cncc(CO)c4)nn23)cc(Cl)c2cn[nH]c12` (stereo not drawn) [Example 48, 2-Amino-N-(1-(4-chloro-7-ethoxy-1H-indazol-6-yl)ethyl)-6-(5-(hydroxymethyl)pyridin-3-yl)imidazo[1,2-b]pyridazine-3-carboxamide]: < 100 nM, < 100 nM and < 500 nM.
The matching figures for `CCOc1c(C(C)NC(=O)c2c(N)nc3ccc(-c4cncc(CO)c4)nn23)cc(Cl)c2c(Cl)n[nH]c12` (stereo not drawn) [Example 49, 2-Amino-N-(1-(3,4-dichloro-7-ethoxy-1H-indazol-6-yl)ethyl)-6-(5-(hydroxymethyl)pyridin-3-yl)imidazo[1,2-b]pyridazine-3-carboxamide]: < 100 nM, < 100 nM and < 500 nM.
`CCOc1c(C(C)NC(=O)c2c(N)nn3ccc(-c4cccnc4)nc23)cc(Cl)c2cn[nH]c12` (stereo not drawn) [Example 50, 2-Amino-N-[1-(4-chloro-7-ethoxy-1H-indazol-6-yl)ethyl]-5-pyridin-3-ylpyrazolo[1,5-a]pyrimidine-3-carboxamide bis(trifluoroacetate)]: the values for the 50% inhibitory concentration (IC50) in assay [1], in assay [2] and in assay [3] (setting [4]) were < 100 nM, < 100 nM and < 500 nM, respectively.
Consider `CCOc1c(C(C)NC(=O)c2c(N)nn3cccnc23)cc(Cl)c2c(Br)n[nH]c12` (stereo not drawn) [Example 52, 2-Amino-N-(1-(3-bromo-4-chloro-7-ethoxy-1H-indazol-6-yl)ethyl)pyrazolo[1,5-a]pyrimidine-3-carboxamide trifluoroacetate], for which the concentration for half-maximal inhibition (IC50) was < 100 nM in assay [1], < 500 nM in assay [2] and < 500 nM in assay [3] (setting [4]).
For `CCOc1c(C(C)NC(=O)c2c(N)nn3cccnc23)cc(Cl)c2c(Br)n(CCO)nc12` (stereo not drawn) [Example 53, 2-Amino-N-(1-(3-bromo-4-chloro-7-ethoxy-2-(2-hydroxyethyl)-2H-indazol-6-yl)ethyl)pyrazolo[1,5-a]pyrimidine-3-carboxamide], the IC50 was < 100 nM in assay [1], < 2000 nM in assay [2] and > 1000 nM in assay [3] (setting [4]).
In the case of `CCOc1c(C(C)NC(=O)c2c(N)nn3cccnc23)cc(Cl)c2c(Br)nn(CCO)c12` (stereo not drawn) [Example 54, 2-Amino-N-(1-(3-bromo-4-chloro-7-ethoxy-1-(2-hydroxyethyl)-1H-indazol-6-yl)ethyl)pyrazol[1,5-a]pyrimidine-3-carboxamide trifluoroacetate], the half-inhibitory concentration (IC50) in assay [1] is < 100 nM; in assay [2], < 100 nM; in assay [3] (THP-1 cells), > 1000 nM.
For `CC(NC(=O)c1c(N)nn2cccnc12)c1cc(Cl)c2c(C#N)n[nH]c2c1-c1ccccc1` (stereo not drawn) [Example 55, 2-Amino-N-(1-(4-chloro-3-cyano-7-phenyl-1H-indazol-6-yl)ethyl)pyrazolo[1,5-a]pyrimidine-3-carboxamide trifluoroacetate], the concentration for half-maximal inhibition (IC50) in assay [1] is < 100 nM; in assay [2] it was < 2000 nM; in assay [3] (setting [4]), > 1000 nM.
On the same counts, the results for `CC(NC(=O)c1c(N)nn2cccnc12)c1cc(Cl)c2ccnn2c1N1CCC(C#N)CC1` (stereo not drawn) [Example 56, 2-Amino-N-(1-(4-chloro-7-(4-cyanopiperidin-1-yl)pyrazolo[1,5-a]pyridin-6-yl)ethyl)pyrazolo[1,5-a]pyrimidine-3-carboxamide trifluoroacetate] are < 100 nM, < 100 nM and < 500 nM.
On the same counts, the results for `C[C@H](NC(=O)c1c(N)nn2cccnc12)c1cc(Cl)c2ccnn2c1N1CCS(=O)(=O)CC1` [Example 57, (S)-2-Amino-N-(1-(4-chloro-7-(1,1-dioxidothiomorpholino)pyrazolo[1,5-a]pyridin-6-yl)ethyl)pyrazolo[1,5-a]pyrimidine-3-carboxamide trifluoroacetate] are < 100 nM, < 100 nM and < 500 nM.
On the same counts, the results for `C[C@H](NC(=O)c1c(N)nn2cccnc12)c1cc(Cl)c2c(F)cnn2c1N1CCS(=O)(=O)CC1` [Example 58, (S)-2-Amino-N-(1-(4-chloro-7-(1,1-dioxidothiomorpholino)-3-fluoropyrazolo[1,5-a]pyridin-6-yl)ethyl)pyrazolo[1,5-a]pyrimidine-3-carboxamide trifluoroacetate] are < 100 nM, < 100 nM and < 500 nM.

Usually IC50 stands for the concentration that inhibits the measured activity by half.
